Columns and labels:
[1] = tested on: Monocotyledonous and dicotyledonous test plants; assay: Example B1: herbicidal action prior to emergence (pre-emergence), 500 g/ha; assay type: in vivo; conditions: 13 days after application, 0 = no damage, 100 = plants completely dead; for ALOMY herbicidal effect (visual assessment, percentage scale): Alopecurus myosuroides (slender foxtail); for AMARE herbicidal effect (visual assessment, percentage scale): Amaranthus retroflexus (redroot pigweed); for ECHCG herbicidal effect (visual assessment, percentage scale): Echinochloa crus-galli (barnyard grass); for STEME herbicidal effect (visual assessment, percentage scale): Stellaria media (chickweed)
Summary of the method: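 Pre-emergence test with monocot and dicot species sown in standard compost. Compound was track-sprayed onto the soil surface at 500 g/ha in 50% acetone/water with 0.5% Tween 20 (1000 l/ha equivalent). Damage was scored visually 13 days after application on a 0–100% scale, where 100 means plants completely dead.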

[2] = tested on: Monocotyledonous and dicotyledonous test plants; assay: Example B3: herbicidal action prior to emergence (pre-emergence), 96-cell seed trays, 1000 g/ha; assay type: in vivo; parameters: key: 0 is no damage to plant; 5 is total damage to plant; conditions: 9 days after application
Summary of the method: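 Soil-surface pre-emergence spray at 1000 g/ha in water with 10% DMSO (1000 l/ha equivalent), applied one day after sowing in sterilised soil. Plants kept in a climatic chamber (24/19 °C day/night, 13 h light, 50-60% humidity); damage scored visually 0-5 at 9 days after application.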

[3] = tested on: Alopecurus myosuroides (slender foxtail); assay: Example B2: herbicidal action post emergence, 500 g/ha; assay type: in vivo; conditions: applied to the foliage, 13 days after application, 0 is no damage to plants, 100 is plants completely dead
Protocol: (§1) Monocotyledonous and dicotyledonous test plants were sown in seed trays in standard compost and were grown for eight days. The trays were watered twice daily or as required. The chemicals were applied by track sprayer to the foliage. The application was carried out with an aqueous suspension of the test substances, prepared as a formulation of 50% acetone in water with 0.5% Tween 20™ (CAS RN 9005-64-5), to achieve a field equivalent of 1000 l/ha. The application rate of the test substances was 500 g/ha. A visual assessment of the herbicidal effect was made at 13 days after application. The following percentage scale was used for assessment: 0, 5, 10, 20, 30, 40, 50, 60, 70, 80, 90, 95, 100 (where O is no damage to plants and 100 is plants are completely dead).

[4] = tested on: Stellaria media (chickweed); assay: as above; assay type: in vivo; conditions: applied to the foliage, 13 days after application, 0 is no damage to plants, 100 is plants completely dead
Protocol: as §1

[5] = tested on: Amaranthus retroflexus (redroot pigweed); assay: as above; assay type: in vivo; conditions: applied to the foliage, 13 days after application, 0 is no damage to plants, 100 is plants completely dead
Protocol: as §1

[6] = tested on: Echinochloa crus-galli (barnyard grass); assay: as above; assay type: in vivo; conditions: applied to the foliage, 13 days after application, 0 is no damage to plants, 100 is plants completely dead
Protocol: as §1

| Structure (SMILES) | melting point [°C] | ALOMY herbicidal effect (visual assessment, percentage scale) [1] [%] | AMARE herbicidal effect (visual assessment, percentage scale) [1] [%] | ECHCG herbicidal effect (visual assessment, percentage scale) [1] [%] | STEME herbicidal effect (visual assessment, percentage scale) [1] [%] | AGSTE herbicidal effect (visual assessment, scale 0-5) ([2]; Agrostis tenius (Colonial bentgrass)) | AMARE herbicidal effect (visual assessment, scale 0-5) ([2]; Amaranthus retroflexus (redroot pigweed)) | DIGSA herbicidal effect (visual assessment, scale 0-5) ([2]; Digitaria sanguinalis (hairy finger-grass)) | POATR herbicidal effect (visual assessment, scale 0-5) ([2]; Poa trivialis (rough blue grass)) | SETIT herbicidal effect (visual assessment, scale 0-5) ([2]; Setaria italica (foxtail millet)) | ALOMY, visual assessment of the herbicidal effect [3] [%] | STEME, visual assessment of the herbicidal effect [4] [%] | AMARE, visual assessment of the herbicidal effect [5] [%] | ECHCG, visual assessment of the herbicidal effect [6] [%] |
| --- | --- | --- | --- | --- | --- | --- | --- | --- | --- | --- | --- | --- | --- | --- |
| Cn1nc(C(F)(F)F)c(C(F)(F)S(=O)(=O)c2ncc(Br)s2)c1Cl [Compound No. 1.033, 5-bromo-2-[(5-chloro-1-methyl-3-trifluoromethyl-1H-pyrazol-4-yl)-difluoro-methanesulfonyl]-thiazole] | 186 to 188 |  |  |  |  |  |  |  |  |  |  |  |  |  |
| CC(c1c(C(F)(F)F)nn(C)c1OCC(F)(F)F)S(=O)(=O)c1ncc(Cl)s1 (racemic) [1.096] |  | 95 | 95 | 95 | 95 | 5 | 5 | 5 | 5 | 5 | 90 | 70 | 80 | 80 |
| Cn1nc(C(F)(F)F)c(C(Cl)S(=O)(=O)c2ncc(Br)s2)c1Cl (stereo not shown) [Compound No. 1.030, 5-bromo-2-[chloro-(5-chloro-1-methyl-3-trifluoromethyl-1H-pyrazol-4-yl)-methanesulfonyl]-thiazole] | 78 to 79.5 |  |  |  |  |  |  |  |  |  |  |  |  |  |
| Cn1nc(C(F)(F)F)c(CSc2ncc(C(N)=O)s2)c1OCC(F)(F)F [1.121, 2-[1-methyl-5-(2,2,2-trifluoro-ethoxy)-3-trifluoromethyl-1H-pyrazol-4-ylmethylsulfanyl]-thiazole-5-carboxylic acid amide] | 118 to 120 |  |  |  |  |  |  |  |  |  |  |  |  |  |
| COCCOc1c(C[S+]([O-])c2ncc(Cl)s2)c(C(F)(F)F)nn1C (racemic) [1.051] |  | 80 | 100 | 70 | 100 |  |  |  |  |  | 70 | 70 | 70 | 80 |
| CCOc1c(CS(=O)(=O)c2ncc(Br)s2)c(C(F)(F)F)nn1C [1.023] |  | 50 | 100 | 90 | 30 |  |  |  |  |  | 70 | 20 | 80 | 80 |
| Cn1nc(C(F)(F)F)c(C[S+]([O-])c2ncc(Cl)s2)c1OCC(F)(F)F (racemic) [1.014] |  | 100 | 100 | 95 | 95 |  |  |  |  |  | 70 | 80 | 70 | 60 |
| Cn1nc(C(F)(F)F)c(C[S+]([O-])c2ncc(Br)s2)c1OCC(F)(F)F (stereo not shown) [Compound No. 1.002, 5-bromo-2-[1-methyl-5-(2,2,2-trifluoroethoxy)-3-trifluoromethyl-1H-pyrazol-4-ylmethanesulfinyl]-thiazole] |  | 95 | 100 | 95 | 100 |  |  |  |  |  | 95 | 90 | 95 | 95 |
| Cn1nc(C(F)(F)F)c(CS(=O)(=O)c2ncc(Br)s2)c1Cl [Compound No. 1.006, 5-bromo-2-(5-chloro-1-methyl-3-trifluoromethyl-1H-pyrazol-4-ylmethanesulfonyl)-thiazole] |  | 90 | 95 | 95 | 30 |  |  |  |  |  | 70 | 0 | 30 | 80 |
| Cn1nc(C(F)(F)F)c(C[S+]([O-])c2ncc(Br)s2)c1OCC(F)F (racemic) [1.025] |  | 95 | 100 | 95 | 90 |  |  |  |  |  | 70 | 90 | 80 | 80 |

From patent US20090048112A1, “Novel Herbicides” (SYNGENTA LIMITED, priority 2005, published 2009)
